Results taken from patent publication US10294248B2, “Beta-lactamase inhibitors” (VenatoRx Pharmaceuticals, Inc., priority 2013, dated 2019).

What was measured:
[1] = target: T1, VIM-2 metallo-β-lactamase (Class B) (Pseudomonas aeruginosa, UniProt Q9K2N0); experiment: β-Lactamase inhibition, VIM-2; type: biochemical; conditions: nitrocefin 100 μM, 486 nm; 15 min preincubation at 37° C., PBS pH 7.4
T1 construct: made in house; host or cells: E. coli BL21(DE3)
Summary of the method: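 Purified VIM-2 (Q sepharose anion exchange, Hepes pH 7.5, >90% pure) was preincubated with inhibitor at 37 °C for 15 min, then nitrocefin added at 100 μM final. Absorbance at 486 nm was followed for 10 min; IC50 was taken from maximum hydrolysis rates relative to inhibitor-free controls.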

[2] = test system: E. coli ESBL4 expressing CTX-M-15; experiment: Broth microdilution MIC, E. coli ESBL4 CTX-M-15; type: cell-based; conditions: fixed 4 μg/mL ceftazidime; CAMHB, 16-20 hours at 37° C.
Summary of the method: (§1)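 Potentiation MIC by CLSI broth microdilution in cation-adjusted Mueller Hinton broth. Test compound was 2-fold serially diluted from 32 to 0.25 μg/ml with a β-lactam held at a static 4 μg/ml. After 16-20 h at 37° C, MIC was read visually.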

[3] = target: T2, OXA-1 β-lactamase (Class D oxacillinase) (Escherichia coli, UniProt P13661); experiment: β-Lactamase inhibition, OXA-1; type: biochemical; conditions: nitrocefin 100 μM, 486 nm; 15 min preincubation at 37° C., PBS pH 7.4
T2 construct: made in house; host or cells: E. coli BL21(DE3)
T2 sequence (P13661 26-276): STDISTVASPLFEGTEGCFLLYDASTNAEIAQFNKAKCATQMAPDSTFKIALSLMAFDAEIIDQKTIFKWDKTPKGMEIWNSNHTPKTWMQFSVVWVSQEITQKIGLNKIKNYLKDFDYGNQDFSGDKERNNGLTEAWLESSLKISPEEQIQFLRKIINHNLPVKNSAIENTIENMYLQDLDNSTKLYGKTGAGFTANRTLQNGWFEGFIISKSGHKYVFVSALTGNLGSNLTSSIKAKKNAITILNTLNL
Summary of the method: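 Untagged enzyme from E. coli BL21(DE3), purified by Capto S then Superdex 75; 15 min 37 °C preincubation with inhibitor; KPC-2 read with imipenem at 300 nm, SHV-5 with cefotaxime at 260 nm, OXA-1 with nitrocefin 100 μM final at 486 nm; 10 min kinetic read; IC50 vs uninhibited wells.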

[4] = test system: S. aureus MSSA-7 producing penicillinase PC-1; experiment: Broth microdilution MIC, S. aureus MSSA-7 PC-1; type: cell-based; conditions: fixed 4 μg/mL piperacillin; CAMHB, 16-20 hours at 37° C.
Summary of the method: as §1

[5] = target: T3, p99 AmpC β-lactamase (Class C) (Enterobacter cloacae, UniProt P05364); experiment: β-Lactamase inhibition, p99 AmpC; type: biochemical
T3 construct: made in house; host or cells: E. coli BL21(DE3)
T3 sequence (P05364 21-381): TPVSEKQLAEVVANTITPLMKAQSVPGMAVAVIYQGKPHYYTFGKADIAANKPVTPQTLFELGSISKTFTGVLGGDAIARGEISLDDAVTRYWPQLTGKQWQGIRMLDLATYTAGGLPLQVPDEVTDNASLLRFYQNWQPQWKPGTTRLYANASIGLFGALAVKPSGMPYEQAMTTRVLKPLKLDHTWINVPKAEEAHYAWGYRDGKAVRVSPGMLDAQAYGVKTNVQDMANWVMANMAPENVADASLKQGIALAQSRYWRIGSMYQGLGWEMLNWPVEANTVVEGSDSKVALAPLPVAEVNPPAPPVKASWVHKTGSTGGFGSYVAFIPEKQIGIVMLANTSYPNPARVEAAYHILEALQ

[6] = test system: P. aeruginosa Ps296 expressing VIM-2; experiment: Broth microdilution MIC, P. aeruginosa Ps296 VIM-2; type: cell-based; conditions: fixed 4 μg/mL meropenem; CAMHB, 16-20 hours at 37° C.
Summary of the method: as §1

[7] = test system: E. cloacae 144200 expressing Class C P99 AmpC; experiment: Broth microdilution MIC, E. cloacae 144200 p99 AmpC; type: cell-based; conditions: fixed 4 μg/mL ceftazidime; CAMHB, 16-20 hours at 37° C.
Summary of the method: as §1

[8] = test system: K. pneumoniae 156319 expressing KPC-3; experiment: Broth microdilution MIC, K. pneumoniae 156319 KPC-3; type: cell-based; conditions: fixed 4 μg/mL meropenem; CAMHB, 16-20 hours at 37° C.
Summary of the method: as §1

[9] = test system: K. pneumoniae A-1797 expressing KPC-2 and VIM-4; experiment: Broth microdilution MIC, K. pneumoniae A-1797 KPC-2/VIM-4; type: cell-based; conditions: fixed 4 μg/mL meropenem; CAMHB, 16-20 hours at 37° C.
Summary of the method: as §1

[10] = target: T4, KPC-2 β-lactamase (Class A carbapenemase) (Klebsiella pneumoniae, UniProt Q9F663); experiment: β-Lactamase inhibition, KPC-2; type: biochemical; conditions: imipenem substrate, 300 nm; 15 min preincubation at 37° C., PBS pH 7.4
T4 construct: made in house; host or cells: E. coli BL21(DE3)
T4 sequence (Q9F663 25-293, looked up): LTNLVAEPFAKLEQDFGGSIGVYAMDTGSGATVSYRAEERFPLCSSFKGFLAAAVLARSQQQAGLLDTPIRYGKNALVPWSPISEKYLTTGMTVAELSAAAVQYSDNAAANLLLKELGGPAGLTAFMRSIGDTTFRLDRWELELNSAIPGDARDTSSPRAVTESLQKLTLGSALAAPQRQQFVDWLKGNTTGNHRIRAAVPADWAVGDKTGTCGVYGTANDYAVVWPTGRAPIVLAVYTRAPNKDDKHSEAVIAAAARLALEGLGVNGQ
Summary of the method: (§2)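 Native untagged β-lactamases were expressed in E. coli BL21(DE3), then purified by cation exchange and gel filtration. Enzyme was preincubated with inhibitor for 15 min at 37 °C before substrate was added. Imipenem (A300) served KPC-2 and cefotaxime (A260) served SHV-5. IC50 was taken from initial hydrolysis rates relative to no-inhibitor controls.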

[11] = target: T5, SHV-5 β-lactamase (Class A ESBL) (Klebsiella pneumoniae, UniProt P0A3M1); experiment: β-Lactamase inhibition, SHV-5; type: biochemical
T5 construct: made in house; host or cells: E. coli BL21(DE3)
T5 sequence (P0A3M1 22-286): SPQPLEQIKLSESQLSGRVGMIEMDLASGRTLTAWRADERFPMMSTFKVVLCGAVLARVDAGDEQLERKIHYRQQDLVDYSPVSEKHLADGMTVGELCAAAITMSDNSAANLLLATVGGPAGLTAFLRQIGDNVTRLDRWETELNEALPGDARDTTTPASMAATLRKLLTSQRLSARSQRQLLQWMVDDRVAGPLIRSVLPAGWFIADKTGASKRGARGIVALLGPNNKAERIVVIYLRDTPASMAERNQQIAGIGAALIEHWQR
Summary of the method: as §2

SMILES | IC50 [1] [nM] | MIC of example compound in presence of fixed β-lactam: Fixed CAZ, E. coli ESBL4 CTX-M-15 [2] | IC50 [3] [nM] | MIC of example compound in presence of fixed β-lactam: Fixed Pip, S. aureus MSSA-7 PC-1 [4] | IC50 [5] [nM] | MIC of example compound in presence of fixed β-lactam: Fixed Mero, P. aerug. Ps296 VIM-2 [6] | MIC of example compound in presence of fixed β-lactam: Fixed CAZ, E. cl. 144200 p99 AmpC [7] | MIC of example compound in presence of fixed β-lactam: Fixed Mero, K. P. 156319 KPC-3 [8] | MIC of example compound in presence of fixed β-lactam: Fixed Mero, K. P. A-1797 KPC-2 VIM-4 [9] | IC50 [10] [nM] | IC50 [11] [nM]
CN1CCC(C(=O)N[C@H]2Cc3cccc(C(=O)O)c3OB2O)(N(C)C)CC1 [Example 51, 3-[(4-Dimethylamino-1-methyl-piperidine-4-carbonyl)-amino]-2-hydroxy-3,4-dihydro-2H-benzo[e][1,2]oxaborinine-8-carboxylic acid] | 1000 to 10000 | C (the MIC in the presence of <4 μg/mL of a β-lactamase inhibitor) | 100 to 1000 | C (the MIC in the presence of <4 μg/mL of a β-lactamase inhibitor) | < 100 | C (the MIC in the presence of <4 μg/mL of a β-lactamase inhibitor) | C (the MIC in the presence of <4 μg/mL of a β-lactamase inhibitor) | C (the MIC in the presence of <4 μg/mL of a β-lactamase inhibitor) | A (an MIC of the fixed β-lactam antibiotic in the presence of >32 μg/mL of a β-lactamase inhibitor) | < 100 | 1000 to 10000
NCCN1CCC(NCC(=O)N[C@H]2Cc3cccc(C(=O)O)c3OB2O)CC1 [Example 52, 3-{2-[1-(2-Amino-ethyl)-piperidin-4-ylamino]-acetylamino}-2-hydroxy-3,4-dihydro-2H-benzo[e][1,2]oxaborinine-8-carboxylic acid] | 1000 to 10000 | C (the MIC in the presence of <4 μg/mL of a β-lactamase inhibitor) | < 100 | C (the MIC in the presence of <4 μg/mL of a β-lactamase inhibitor) | < 100 | B (the MIC in the presence of between 8 and 32 μg/mL of a β-lactamase inhibitor) | C (the MIC in the presence of <4 μg/mL of a β-lactamase inhibitor) | C (the MIC in the presence of <4 μg/mL of a β-lactamase inhibitor) | B (the MIC in the presence of between 8 and 32 μg/mL of a β-lactamase inhibitor) | < 100 | < 100
